Source: patent US20230255970A1, “COMPOSITIONS AND METHODS FOR TREATING PROLIFERATIVE DISEASES” (The Broad Institute, Inc., priority 2020, published 2023)

Tests used:
[1] = system: STK3/MST2 overexpression; experiment: Cell Painting morphological profile matching to STK3/MST2 overexpression; format: cell-based, human
Source text: To profile each exogenously expressed gene (or allele therein), the previously developed image-based profiling assay, called Cell Painting was used (see Bray et al., Nat. Protoc. 2016 September; 11(9): 1757-1774). […] In five replicates in 384-well plate format, U2OS cells (human bone osteosarcoma cells), chosen for their flat morphology and previous validation in the assay, were infected with an arrayed ‘reference’ expression library of 323 open reading frame (ORF) constructs of partially characterized functions, a subset of which have been previously described. […]
Using the morphological signature found for YAP1 and TAZ, data mining was performed seeking compounds that effected the same (or opposite) morphology by computationally matching the morphological signature to a public database of small molecule signatures (see Caicedo et al., Nat. Meth. 2017 September; 14(9), 849-63, doi:10.1038/nMeth.4397, incorporated herein by reference). Specifically, the intersection of features in the two datasets was determined, resulting in 605 features (1399 features in the genetic screen, without any feature selection; and 729 features in the compound screen, obtained using the findCorrelation function with a threshold of 0.90 on the original 1,783 dimensional feature set). […]

[2] = system: H9 human pluripotent stem cells; experiment: qPCR of YAP1, CTGF and CYR61 in H9 hPSCs; format: cell-based; details: 24 hrs
Experimental: H9 hPSCs (WiCell) were maintained on vitronectin (Thermo Fisher)-coated plates in Essential 8 (E8) medium. The cells were routinely passaged using 0.5 mM EDTA and treated with 5 μM Y-27632 dihydrochloride (Tocris) on the first day. For testing the effects of the small molecules, H9 hPSCs were seeded at 50K cells/cm^2 on vitronectin-coated plates in E8 medium supplemented with 5 μM Y-27632 dihydrochloride (day 0). On day 1, the medium was switched to E8 medium. On day 2, the medium was switched to E8 medium supplemented with the small molecules. Following overnight incubation, the cells were collected for subsequent analysis on day 3.
The RNA was extracted using TRIzol (Life Technologies) and Direct-zol™ RNA MiniPrep kit (Zymo Research) as per manufacturer instructions. The RNA was reverse transcribed using iScript cDNA synthesis kit (Bio-Rad). The qPCR was performed on CFX Connect (Bio-Rad) using iTaq Universal SYBR Green Supermix (Bio-Rad). GAPDH was used as a reference gene for normalization. The relative gene expression levels were determined using the ddCt method.

[3] = system: KP230 cells; experiment: qRT-PCR of Yap1 and target genes in KP230 cells; format: cell-based, mouse
Source text: (§1) YAP1 cell culture and treatments: Eisinger lab: Murine KP230 cells, a Yap1-dependent cancer cell line, were derived from a tumor from the KP mouse model (Kras^G12/D; Trp53^f/fl), as described in Eisinger-Mathason, T. S. K. et al., Proc. Natl. Acad. Sci. U.S.A 112 (2015): E3402-11, which is hereby incorporated by reference in its entirety. STS-109 UPS cells were derived from a human UPS tumor and validated by Rebecca Gladdy, MD (Sinai Health System, Toronto, Ontario, Canada). TC32 cells were a gift from Patrick Grohar, MD, PhD (Children's Hospital of Philadelphia). HT-1080, HCT-116, and HEK293T cells were purchased from ATCC. KP230, HT-1080, and HEK-293T cells were grown in DMEM with 10% FBS, 1% L-glutamine, and 1% penicillin/streptomycin (P/S). […]
YAP1-related qRT-PCR: Total RNA from cultured cells was isolated with the QIAGEN RNeasy mini kit, and cDNA was synthesized with the High-Capacity RNA-to-cDNA kit (Life Technologies). qRT-PCR analysis was performed with TaqMan “best coverage” probes on a ViiA7 instrument. […] Relative expression was calculated using the ddCt method.

[4] = system: HCT-116 colon cancer cells; experiment: Proliferation assay, HCT-116 cells; format: cell-based; details: 10 μM daily for 72 hours
Source text: as §1, with “(P/S). STS-109 cells were cultured in DMEM with 20% FBS, 1% L-glutamine, and 1% P/S. TC32 cells were grown in RPMI with 10% FBS, 1% L-glutamine, and 1% P/S. HCT-116 cells were cultured in McCoy's 5A medium with 10% FBS and 1% P/S. All cells were confirmed to be negative for mycoplasma contamination and were maintained in an incubator at 37C with 5% CO2.” for “(P/S).”
NB4A treatment: Cells were treated with 10 μM of each inhibitor or an equivalent volume of DMSO every 24 hours for 3-8 days, and counted with a hemocytometer with trypan blue exclusion daily (KP230, HT-1080, TC32, HCT-116), or every 2 days (STS-109).

c1ccc(CNc2ncnc3ccccc23)cc1 [BRD-K43796186, N-benzylquinazolin-4-amine]
Morphological profile correlation with overexpression of STK3/MST2 [1]: −0.49
YAP1 expression [2]: did not affect
expression of YAP1 target genes (CTGF and CYR61) [2]: increased the expression of YAP1 target genes (CTGF and CYR61) in a dose-dependent manner
transcription of Yap1, its sarcoma target genes (Foxm1, Ccl2, Hbegf, Birc5, Rela) and Amot [3]: did not regulate transcription
proliferation [4]: did not affect the proliferation
